From PubChem BioAssay AID1845196 (Molecular Pharmacology Branch, DTP, NCI, 2023)

System: 292921-168-R tumor spheroid viability
Assay: Anticancer human tumor 292921-168-R patient-derived pancreatic carcinoma cell line growth inhibition
Settings: spheroids with HUVEC and MSC; for IC50: curve of first compound; for viability, T/C: stronger effect = lower value
Method in brief: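 Complex spheroids of malignant cells with endothelial cells and mesenchymal stem cells; agents alone or combined, from near clinical Cmax (or 10 microM if unknown) down in half-log steps, 0.25% DMSO final.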

[1] = second compound 30 pM, first compound 0.00949 µM
[2] = second compound 30 pM, first compound 0.03 µM
[3] = second compound 30 pM, first compound 0.0949 µM
[4] = second compound 30 pM, first compound 0.3 µM
[5] = second compound 30 pM, first compound 0.949 µM
[6] = second compound 30 pM, first compound 3 µM
[7] = second compound 94.9 pM, first compound 0.00949 µM
[8] = second compound 94.9 pM, first compound 0.03 µM
[9] = second compound 94.9 pM, first compound 0.0949 µM
[10] = second compound 94.9 pM, first compound 0.3 µM
[11] = second compound 94.9 pM, first compound 0.949 µM
[12] = second compound 94.9 pM, first compound 3 µM
[13] = second compound 0.0003 µM, first compound 0.00949 µM
[14] = second compound 0.0003 µM, first compound 0.03 µM
[15] = second compound 0.0003 µM, first compound 0.0949 µM
[16] = second compound 0.0003 µM, first compound 0.3 µM
[17] = second compound 0.0003 µM, first compound 0.949 µM
[18] = second compound 0.0003 µM, first compound 3 µM
[19] = second compound 0.000949 µM, first compound 0.00949 µM
[20] = second compound 0.000949 µM, first compound 0.03 µM
[21] = second compound 0.000949 µM, first compound 0.0949 µM
[22] = second compound 0.000949 µM, first compound 0.3 µM
[23] = second compound 0.000949 µM, first compound 0.949 µM
[24] = second compound 0.000949 µM, first compound 3 µM
[25] = second compound 0.003 µM, first compound 0.00949 µM
[26] = second compound 0.003 µM, first compound 0.03 µM
[27] = second compound 0.003 µM, first compound 0.0949 µM
[28] = second compound 0.003 µM, first compound 0.3 µM
[29] = second compound 0.003 µM, first compound 0.949 µM
[30] = second compound 0.003 µM, first compound 3 µM
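Further: spheroids exposed to compounds for 7 days.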

## CNCc1ccc(-c2cc(-c3nc(-c4ccc(S(=O)(=O)C(C)C)cc4)cnc3N)on2)cc1 + COc1cc2c(cc1O)CCNC21CSC2c3c(OC(C)=O)c(C)c4c(c3C(COC1=O)N1C(O)C3Cc5cc(C)c(OC)c(O)c5C(C21)N3C)OCO4
Second compound 30 pM
  IC50: 0.193 µM
Second compound 94.9 pM
  IC50: 0.147 µM
Second compound 0.0003 µM
  IC50: < 0.00949 µM
Second compound 0.000949 µM
  IC50: < 0.00949 µM
Second compound 0.003 µM
  IC50: < 0.00949 µM
[1]
  viability, T/C: 96.9%
[2]
  viability, T/C: 104%
[3]
  viability, T/C: 71.5%
[4]
  viability, T/C: 36.8%
[5]
  viability, T/C: 15.8%
[6]
  viability, T/C: 13.2%
[7]
  viability, T/C: 100%
[8]
  viability, T/C: 96.4%
[9]
  viability, T/C: 69%
[10]
  viability, T/C: 19%
[11]
  viability, T/C: 13.2%
[12]
  viability, T/C: 8.91%
[13]
  viability, T/C: 45.9%
[14]
  viability, T/C: 50.7%
[15]
  viability, T/C: 28.6%
[16]
  viability, T/C: 14.5%
[17]
  viability, T/C: 10%
[18]
  viability, T/C: 8.68%
[19]
  viability, T/C: 2.7%
[20]
  viability, T/C: 5.05%
[21]
  viability, T/C: 4.26%
[22]
  viability, T/C: 4.15%
[23]
  viability, T/C: 3.65%
[24]
  viability, T/C: 0.18%
[25]
  viability, T/C: 0.18%
[26]
  viability, T/C: 0.17%
[27]
  viability, T/C: 0.15%
[28]
  viability, T/C: 0.2%
[29]
  viability, T/C: 0.24%
[30]
  viability, T/C: 0.16%

## Cc1sc2c(c1C)C(c1ccc(Cl)cc1)=NC(CC(=O)Nc1ccc(O)cc1)c1nnc(C)n1-2 (stereo not given) + COc1cc2c(cc1O)CCNC21CSC2c3c(OC(C)=O)c(C)c4c(c3C(COC1=O)N1C(O)C3Cc5cc(C)c(OC)c(O)c5C(C21)N3C)OCO4
Second compound 30 pM
  IC50: 1.69 µM
Second compound 94.9 pM
  IC50: 1.72 µM
Second compound 0.0003 µM
  IC50: 0.306 µM
Second compound 0.000949 µM
  IC50: < 0.00949 µM
Second compound 0.003 µM
  IC50: < 0.00949 µM
[1]
  viability, T/C: 110%
[2]
  viability, T/C: 120%
[3]
  viability, T/C: 118%
[4]
  viability, T/C: 136%
[5]
  viability, T/C: 63.5%
[6]
  viability, T/C: 36.5%
[7]
  viability, T/C: 106%
[8]
  viability, T/C: 110%
[9]
  viability, T/C: 118%
[10]
  viability, T/C: 110%
[11]
  viability, T/C: 79.2%
[12]
  viability, T/C: 22.5%
[13]
  viability, T/C: 53.8%
[14]
  viability, T/C: 52.6%
[15]
  viability, T/C: 63.2%
[16]
  viability, T/C: 50.7%
[17]
  viability, T/C: 4.2%
[18]
  viability, T/C: 0.5%
[19]
  viability, T/C: 1.64%
[20]
  viability, T/C: 1.61%
[21]
  viability, T/C: 0.91%
[22]
  viability, T/C: 0.26%
[23]
  viability, T/C: 0.07%
[24]
  viability, T/C: 0.13%
[25]
  viability, T/C: 0.18%
[26]
  viability, T/C: 0.16%
[27]
  viability, T/C: 0.16%
[28]
  viability, T/C: 0.15%
[29]
  viability, T/C: 0.25%
[30]
  viability, T/C: 0.58%

## Cn1ncnc1[C@H]1c2n[nH]c(=O)c3cc(F)cc(c23)N[C@@H]1c1ccc(F)cc1 + COc1cc2c(cc1O)CCNC21CSC2c3c(OC(C)=O)c(C)c4c(c3C(COC1=O)N1C(O)C3Cc5cc(C)c(OC)c(O)c5C(C21)N3C)OCO4
Second compound 30 pM
  IC50: 0.646 µM
Second compound 94.9 pM
  IC50: 0.233 µM
Second compound 0.0003 µM
  IC50: < 0.00949 µM
Second compound 0.000949 µM
  IC50: < 0.00949 µM
Second compound 0.003 µM
  IC50: < 0.00949 µM
[1]
  viability, T/C: 103%
[2]
  viability, T/C: 86.9%
[3]
  viability, T/C: 76.5%
[4]
  viability, T/C: 70.5%
[5]
  viability, T/C: 41.4%
[6]
  viability, T/C: 11.9%
[7]
  viability, T/C: 85.1%
[8]
  viability, T/C: 69.8%
[9]
  viability, T/C: 65.1%
[10]
  viability, T/C: 47.5%
[11]
  viability, T/C: 26.4%
[12]
  viability, T/C: 9.68%
[13]
  viability, T/C: 26.6%
[14]
  viability, T/C: 29.4%
[15]
  viability, T/C: 24.2%
[16]
  viability, T/C: 17.1%
[17]
  viability, T/C: 14.6%
[18]
  viability, T/C: 7%
[19]
  viability, T/C: 4.23%
[20]
  viability, T/C: 4.2%
[21]
  viability, T/C: 3.68%
[22]
  viability, T/C: 2.89%
[23]
  viability, T/C: 1.55%
[24]
  viability, T/C: 0.27%
[25]
  viability, T/C: 0.19%
[26]
  viability, T/C: 0.19%
[27]
  viability, T/C: 0.17%
[28]
  viability, T/C: 0.22%
[29]
  viability, T/C: 0.18%
[30]
  viability, T/C: 0.42%

## O=C(c1cc(Cc2n[nH]c(=O)c3ccccc23)ccc1F)N1CCN(C(=O)C2CC2)CC1 + COc1cc2c(cc1O)CCNC21CSC2c3c(OC(C)=O)c(C)c4c(c3C(COC1=O)N1C(O)C3Cc5cc(C)c(OC)c(O)c5C(C21)N3C)OCO4
Second compound 30 pM
  IC50: 8.26 µM
Second compound 94.9 pM
  IC50: 7.07 µM
Second compound 0.0003 µM
  IC50: < 0.0949 µM
Second compound 0.000949 µM
  IC50: < 0.0949 µM
Second compound 0.003 µM
  IC50: < 0.0949 µM
[3]
  viability, T/C: 99.4%
[4]
  viability, T/C: 103%
[5]
  viability, T/C: 96.6%
[6]
  viability, T/C: 91.9%
Second compound 30 pM, first compound 9.49 µM
  viability, T/C: 44.2%
Second compound 30 pM, first compound 30 µM
  viability, T/C: 21.8%
[9]
  viability, T/C: 94.8%
[10]
  viability, T/C: 94%
[11]
  viability, T/C: 88%
[12]
  viability, T/C: 82.2%
Second compound 94.9 pM, first compound 9.49 µM
  viability, T/C: 38.9%
Second compound 94.9 pM, first compound 30 µM
  viability, T/C: 22.4%
[15]
  viability, T/C: 48%
[16]
  viability, T/C: 41.3%
[17]
  viability, T/C: 38.6%
[18]
  viability, T/C: 34.3%
Second compound 0.0003 µM, first compound 9.49 µM
  viability, T/C: 10.7%
Second compound 0.0003 µM, first compound 30 µM
  viability, T/C: 13.2%
[21]
  viability, T/C: 3.75%
[22]
  viability, T/C: 4.31%
[23]
  viability, T/C: 3.14%
[24]
  viability, T/C: 3.26%
Second compound 0.000949 µM, first compound 9.49 µM
  viability, T/C: 1.19%
Second compound 0.000949 µM, first compound 30 µM
  viability, T/C: 0.39%
[27]
  viability, T/C: 0.15%
[28]
  viability, T/C: 0.13%
[29]
  viability, T/C: 0.13%
[30]
  viability, T/C: 0.23%
Second compound 0.003 µM, first compound 9.49 µM
  viability, T/C: 0.41%
Second compound 0.003 µM, first compound 30 µM
  viability, T/C: 1.31%
